Legend:
LNCaP tumor bearing mice [1] = assay: SPECT/CT scanning, exposure of 177Lu labeled compounds in tumor and tissues; format: in vivo
Experimental: The ^177Lu labeled precursor compound was diluted to 7.4 MBq (200 μCi)/200 […] with normal saline, and each tumor bearing mouse was given about 7.4 MBq (200 μCi) of the drug via tail vein injection. SPECT/CT scanning was performed on the mice at 1, 4, 8, 24, 48 and 72 h after administration, respectively, with the mice under continuous anesthesia with isoflurane, lying prone on an examination bed. The acquisition method was static imaging 12 min SPECT, and medium resolution whole-body imaging CT. During the process, according to the recording table, the animal body weight, injection dose, injection time and residual dose were recorded, and the time of measuring the injection dose and the time of measuring the residual dose were recorded respectively. After scanning, the data were reconstructed, PMOD software was used to analyze and delineate each organ tissue and quantify the drug distribution therein, the images and data were saved, and the data were further subjected to statistical analysis.
Drug exposure in each tissue was calculated (Table 1, where the values involving PSMA-D were the predicted values).

LNCaP tumor bearing mice [2] = assay: Inhibition on tumor; format: in vivo; settings: 14.8 MBq (400 μCi)
Experimental: PSMA positive LNCaP cells were proliferated and harvested, and then inoculated subcutaneously in mice at an amount of 1×10^7/mouse. When the tumors grew to 200-400 mm^3, the mice were randomly grouped according to the tumor size (3-4 mice in each group), and were given the compound (400 μCi) of the present invention labeled with […] or the positive control compound PSMA-617 labeled with ^177Lu via tail vein injection, respectively. The tumor sizes and body weights of the mice were measured every 3 days after administration, and the death of the mice was recorded. The control group and the administration group were compared to understand the inhibition on LNCaP tumors by different drugs. On day 6 after administration, SPECT/CT scanning was performed on the administration group to understand the exposure of different drugs at the tumor sites during the treatment.

[3] = labeled with 177Lu, about 7.4 MBq (200 μCi) tail vein, scans 1-72 h

SMILES | Exposure in Bladder (LNCaP tumor bearing mice [1]; [3]) | Exposure in Bone (LNCaP tumor bearing mice [1]; [3]) | Exposure in Heart (LNCaP tumor bearing mice [1]; [3]) | Exposure in Kidney (LNCaP tumor bearing mice [1]; [3]) | Exposure in Liver (LNCaP tumor bearing mice [1]; [3]) | Exposure in Lung (LNCaP tumor bearing mice [1]; [3]) | Exposure in Muscle (LNCaP tumor bearing mice [1]; [3]) | Exposure in Spleen (LNCaP tumor bearing mice [1]; [3]) | Exposure in Tumor (LNCaP tumor bearing mice [1]; [3]) | further results
O=C(O)CC[C@H](NC(=O)N[C@@H](CCCCNC(=O)[C@H](Cc1ccc2ccccc2c1)NC(=O)[C@H]1CC[C@H](CNC(=O)CN2CCN(CC(=O)O)CCN(CC(=O)O)CCN(CC(=O)O)CC2)CC1)C(=O)O)C(=O)O [PSMA-617, reference compound] | 553.2 h*ID %/g | 9.939 h*ID %/g | 23.31 h*ID %/g | 77.45 h*ID %/g | 48.92 h*ID %/g | 40.93 h*ID %/g | 36.36 h*ID %/g | 54.27 h*ID %/g | 346.9 h*ID %/g | 
O=C(O)CCCCCCCCCCCCCCC(=O)N[C@@H](CCCCNC(=O)CN1CCN(CC(=O)O)CCN(CC(=O)O)CCN(CC(=O)O)CC1)C(=O)NCC1CCC(C(=O)N[C@@H](Cc2ccc3ccccc3c2)C(=O)NCCCC[C@H](NC(=O)N[C@@H](CCC(=O)O)C(=O)O)C(=O)O)CC1 (stereo partly drawn) [PSMA-F] | 633.7 h*ID %/g | 94.85 h*ID %/g | 581.6 h*ID %/g | 669.2 h*ID %/g | 263.1 h*ID %/g | 348.3 h*ID %/g | 253.3 h*ID %/g | 55.76 h*ID %/g | 1394 h*ID %/g | 
O=C(O)CCCCCCCCCCCCC(=O)N[C@@H](CCCCNC(=O)CN1CCN(CC(=O)O)CCN(CC(=O)O)CCN(CC(=O)O)CC1)C(=O)NCC1CCC(C(=O)N[C@@H](Cc2ccc3ccccc3c2)C(=O)NCCCC[C@H](NC(=O)N[C@@H](CCC(=O)O)C(=O)O)C(=O)O)CC1 (stereo partly drawn) [PSMA-G] | 935.9 h*ID %/g | 54.86 h*ID %/g | 123.9 h*ID %/g | 1589 h*ID %/g | 193.2 h*ID %/g | 86.51 h*ID %/g | 71.89 h*ID %/g | 83.39 h*ID %/g | 226.4 h*ID %/g | 
COc1ccc(CCCC(=O)NC(CO)C(=O)N[C@@H](CCCCNC(=O)CN2CCN(CC(=O)O)CCN(CC(=O)O)CCN(CC(=O)O)CC2)C(=O)NCC2CCC(C(=O)N[C@@H](Cc3ccc4ccccc4c3)C(=O)NCCCC[C@H](NC(=O)N[C@@H](CCC(=O)O)C(=O)O)C(=O)O)CC2)cc1 (stereo partly drawn) [PSMA-D] |  |  |  |  |  |  |  |  |  | Exposure in Bladder (LNCaP tumor bearing mice [1]; predicted values (PSMA-D)): 200-800 h*ID %/g; Exposure in Bone (LNCaP tumor bearing mice [1]; predicted values (PSMA-D)): 10-80 h*ID %/g; Exposure in Heart (LNCaP tumor bearing mice [1]; predicted values (PSMA-D)): 20-100 h*ID %/g; Exposure in Kidney (LNCaP tumor bearing mice [1]; predicted values (PSMA-D)): 50-500 h*ID %/g; Exposure in Liver (LNCaP tumor bearing mice [1]; predicted values (PSMA-D)): 50-200 h*ID %/g; Exposure in Lung (LNCaP tumor bearing mice [1]; predicted values (PSMA-D)): 20-200 h*ID %/g; Exposure in Muscle (LNCaP tumor bearing mice [1]; predicted values (PSMA-D)): 20-100 h*ID %/g; Exposure in Spleen (LNCaP tumor bearing mice [1]; predicted values (PSMA-D)): 20-100 h*ID %/g; Exposure in Tumor (LNCaP tumor bearing mice [1]; predicted values (PSMA-D)): 200-1000 h*ID %/g
COc1ccc(C(=O)N[C@@H](CCCCNC(=O)CN2CCN(CC(=O)O)CCN(CC(=O)O)CCN(CC(=O)O)CC2)C(=O)NCC2CCC(C(=O)N[C@@H](Cc3ccc4ccccc4c3)C(=O)NCCCC[C@H](NC(=O)N[C@@H](CCC(=O)O)C(=O)O)C(=O)O)CC2)cc1 (stereo partly drawn) [PSMA-I] | 831.9 h*ID %/g | 50.24 h*ID %/g | 23.61 h*ID %/g | 776.8 h*ID %/g | 55.24 h*ID %/g | 31.12 h*ID %/g | 62.66 h*ID %/g | 65.02 h*ID %/g | 95.56 h*ID %/g | 
O=C(O)CCCCCCCCCCC(=O)N[C@@H](CCCCNC(=O)CN1CCN(CC(=O)O)CCN(CC(=O)O)CCN(CC(=O)O)CC1)C(=O)NCC1CCC(C(=O)N[C@@H](Cc2ccc3ccccc3c2)C(=O)NCCCC[C@H](NC(=O)N[C@@H](CCC(=O)O)C(=O)O)C(=O)O)CC1 (stereo partly drawn) [PSMA-H] | 1135 h*ID %/g | 22.69 h*ID %/g | 63.71 h*ID %/g | 575 h*ID %/g | 72.88 h*ID %/g | 56.76 h*ID %/g | 35.74 h*ID %/g | 62.06 h*ID %/g | 441.2 h*ID %/g | 
COc1ccc(CCCC(=O)NC(CCCNC(=N)N)C(=O)N[C@@H](CCCCNC(=O)CN2CCN(CC(=O)O)CCN(CC(=O)O)CCN(CC(=O)O)CC2)C(=O)NCC2CCC(C(=O)N[C@@H](Cc3ccc4ccccc4c3)C(=O)NCCCC[C@H](NC(=O)N[C@@H](CCC(=O)O)C(=O)O)C(=O)O)CC2)cc1 (stereo partly drawn) [PSMA-A] | 310.2 h*ID %/g | 40.07 h*ID %/g | 50.46 h*ID %/g | 206 h*ID %/g | 101.6 h*ID %/g | 35.49 h*ID %/g | 17.65 h*ID %/g | 42.25 h*ID %/g | 235 h*ID %/g | 
COc1ccc(CCCC(=O)NC(CCCCN)C(=O)N[C@@H](CCCCNC(=O)CN2CCN(CC(=O)O)CCN(CC(=O)O)CCN(CC(=O)O)CC2)C(=O)NCC2CCC(C(=O)N[C@@H](Cc3ccc4ccccc4c3)C(=O)NCCCC[C@H](NC(=O)N[C@@H](CCC(=O)O)C(=O)O)C(=O)O)CC2)cc1 (stereo partly drawn) [PSMA-C] | 100.8 h*ID %/g | 32.01 h*ID %/g | 38.58 h*ID %/g | 178.7 h*ID %/g | 49.61 h*ID %/g | 31.55 h*ID %/g | 17.82 h*ID %/g | 29.2 h*ID %/g | 131.9 h*ID %/g | 
COc1ccc(CCCC(=O)NC(CCC(N)=O)C(=O)N[C@@H](CCCCNC(=O)CN2CCN(CC(=O)O)CCN(CC(=O)O)CCN(CC(=O)O)CC2)C(=O)NCC2CCC(C(=O)N[C@@H](Cc3ccc4ccccc4c3)C(=O)NCCCC[C@H](NC(=O)N[C@@H](CCC(=O)O)C(=O)O)C(=O)O)CC2)cc1 (stereo partly drawn) [PSMA-E] | 710.2 h*ID %/g | 51.75 h*ID %/g | 19.52 h*ID %/g | 239 h*ID %/g | 31.19 h*ID %/g | 14.87 h*ID %/g | 25.53 h*ID %/g | 46.74 h*ID %/g | 473.6 h*ID %/g | 
O=C([O-])CN1CCN(CC(=O)[O-])CCN(CC(=O)NCC2CCC(C(=O)N[C@@H](Cc3ccc4ccccc4c3)C(=O)NCCCC[C@H](NC(=O)N[C@@H](CCC(=O)O)C(=O)O)C(=O)O)CC2)CCN(CC(=O)[O-])CC1.[177Lu+3] (stereo partly drawn) [^177Lu-PSMA-617] |  |  |  |  |  |  |  |  |  | body weight of the animals during the treatment (LNCaP tumor bearing mice [2]): no significant difference
COc1ccc(C(=O)NCCN2CCN(C(=O)CCC(=O)N[C@@H](CCCCNC(=O)CN3CCN(CC(=O)O)CCN(CC(=O)O)CCN(CC(=O)O)CC3)C(=O)NCC3CCC(C(=O)N[C@@H](Cc4ccc5ccccc5c4)C(=O)NCCCC[C@H](NC(=O)N[C@@H](CCC(=O)O)C(=O)O)C(=O)O)CC3)CC2)cc1 (stereo partly drawn) [PSMA-K] | 585.9 h*ID %/g | 32.71 h*ID %/g | 54.52 h*ID %/g | 79.78 h*ID %/g | 314.2 h*ID %/g | 278.5 h*ID %/g | 26.77 h*ID %/g | 83.81 h*ID %/g | 281 h*ID %/g | 
COc1ccc(C(=O)NCCN2CCN(C(=O)CCC(=O)N[C@@H](CCCCNC(=O)CN3CCN(CC(=O)O)CCN(CC(=O)O)CCN(CC(=O)O)CC3)C(=O)N3CCc4cc(C(=O)N[C@@H](Cc5ccc6ccccc6c5)C(=O)NCCCC[C@H](NC(=O)N[C@@H](CCC(=O)O)C(=O)O)C(=O)O)ccc4C3)CC2)cc1 [PSMA-L] | 499.3 h*ID %/g | 15.5 h*ID %/g | 40.58 h*ID %/g | 148.8 h*ID %/g | 62.47 h*ID %/g | 51.83 h*ID %/g | 37.2 h*ID %/g | 34.43 h*ID %/g | 1350 h*ID %/g | drug exposure in the LNCaP tumor, in words (LNCaP tumor bearing mice [1]; in contrast to PSMA-617): greatly increase the drug exposure in the LNCaP tumor; exposure in the normal tissues, in words (LNCaP tumor bearing mice [1]; in contrast to PSMA-617): kept at a lower level
COc1ccc(CCCC(=O)NC(Cc2c[nH]cn2)C(=O)N[C@@H](CCCCNC(=O)CN2CCN(CC(=O)O)CCN(CC(=O)O)CCN(CC(=O)O)CC2)C(=O)NCC2CCC(C(=O)N[C@@H](Cc3ccc4ccccc4c3)C(=O)NCCCC[C@H](NC(=O)N[C@@H](CCC(=O)O)C(=O)O)C(=O)O)CC2)cc1 (stereo partly drawn) [PSMA-B] | 157.3 h*ID %/g | 20.62 h*ID %/g | 54.22 h*ID %/g | 330.5 h*ID %/g | 53.28 h*ID %/g | 50.04 h*ID %/g | 32.14 h*ID %/g | 31.81 h*ID %/g | 370 h*ID %/g | 

Source: US20260069725A1, “LIGAND COMPOUND TARGETING PSMA ANTIGEN, AND CHELATE AND USE THEREOF IN DIAGNOSIS AND TREATMENT OF PROSTATE CANCER” (Chengdu StarRay Therapeutics Co., Ltd, priority 2021, published 2026)
